Assays:
SMMC-7721 cells = assay: Gene expression by RT-PCR in SMMC-7721 cells; assay type: cell-based, human; details: 48 h, 10 μM rosiglitazone, 10 μM chiglitazar
Excerpt: cDNAs for human retinoid X receptor (hRXR), PPARα, PPARγ, and PPARδ were obtained by reverse transcriptase polymerase chain reaction (RT-PCR) from human liver or adipose tissues. Amplified cDNAs were cloned into pcDNA3.1 expression vector (Invitrogen, Carlsbad, CA, USA). The integrity and fidelity of all constructs made were verified by DNA sequencing. Luciferase reporter plasmids, ACOX promoter for PPARγ and pHD(X3)-luc for PPARα, were kind gifts of Drs. TM McIntyre (University of Utah, USA) and RA Rachubinski (University of Alberta, Canada), respectively. PPRE-luc for PPARδ was constructed based on the previous report by insertion of the annealed oligonucleotides having four copies of the CYP4A6 PPRE (4 × […]) into the upstream of the luciferase coding sequence in pGL3-promoter vector (Promega, Madison, WI, USA). pCMVβGal was purchased from Clontech (Palo Alto, CA, USA). The mouse 3T3-L1 preadipocyte cell line, skeletal muscle C2C12 cell line, and macrophage RAW267.4 cell line and the human osteosarcoma U2OS cell line were obtained from the American Type Culture Collection (ATCC, Rockville, MD, USA). The human hepatoma SMMC-7721 cell line was obtained from the Cell Culture Center of Chinese Academy of Medical Sciences (Beijing, China). Cell lines were cultured in medium of DMEM (3T3-L1, C2C12, and SMMC-7721), RPMI 1640 (RAW267.4), or McCoy's 5A (U2OS), containing 10% fetal bovine serum (FBS), 50 μg/mL streptomycin, and 50 units/mL penicillin at 37°C in a humidified incubator with 5% CO2.
(§1) Total RNA was extracted from cells or tissues with an RNeasy minikit (Qiagen, Valencia, CA, USA). The first-strand cDNA was synthesized using the oligo(dT) primers, followed by using SuperScript II reverse transcriptase (Invitrogen) according to the manufacturer's instructions. The PCR amplifications were performed in 10 μL of reaction mixture volume containing 0.8 μL of cDNA, 10 mM Tris-HCl (pH 8.3), 50 mM KCl, 1.5 mM MgCl2, 0.1% Triton X-100, 0.2 mM deoxynucleotide triphosphates, 0.4 μM primers, and 0.25 U of Taq polymerase (TaKaRa Biotechnology Co., Ltd, China). Taq DNA polymerase was added to each tube after a treatment of 2 min at 94°C. This was followed by 22–30 cycles of denaturation (23 s at 94°C), annealing (20 s at 55°C), extension (30 s at 72°C), and a final extension step of 2 min. PCR products were analyzed by electrophoresis on a 1.5% agarose gel stained with ethidium bromide.
Figure 1 In vitro regulation of gene expression by chiglitazar. (a) Endogenous expression of individual PPAR subtypes in cell lines. […]. The expression change of referred genes induced by different compounds was normalized against internal control (36B4 or GAPDH) and then compared with vehicle control treatment. The data shown are averaged from 3 independent experiments.

PPARα [1] = target: T1, PPARα (Homo sapiens, UniProt Q07869); assay: PPARα transactivation reporter gene assay in U2OS cells; assay type: cell-based
T1 sequence (Q07869 1-468): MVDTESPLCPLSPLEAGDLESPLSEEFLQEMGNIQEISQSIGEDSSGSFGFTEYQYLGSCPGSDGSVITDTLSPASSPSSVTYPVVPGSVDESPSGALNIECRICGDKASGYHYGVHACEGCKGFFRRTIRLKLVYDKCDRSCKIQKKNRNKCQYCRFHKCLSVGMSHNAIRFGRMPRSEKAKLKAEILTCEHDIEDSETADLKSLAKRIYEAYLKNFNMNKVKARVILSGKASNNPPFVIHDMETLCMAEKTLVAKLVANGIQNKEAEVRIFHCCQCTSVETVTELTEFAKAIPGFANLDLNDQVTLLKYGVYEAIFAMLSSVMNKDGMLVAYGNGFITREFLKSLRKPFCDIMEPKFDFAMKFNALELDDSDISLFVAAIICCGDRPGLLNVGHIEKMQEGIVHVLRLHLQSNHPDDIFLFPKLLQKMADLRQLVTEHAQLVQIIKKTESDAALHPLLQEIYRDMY
T1 sequence (P19793 1-462 partner): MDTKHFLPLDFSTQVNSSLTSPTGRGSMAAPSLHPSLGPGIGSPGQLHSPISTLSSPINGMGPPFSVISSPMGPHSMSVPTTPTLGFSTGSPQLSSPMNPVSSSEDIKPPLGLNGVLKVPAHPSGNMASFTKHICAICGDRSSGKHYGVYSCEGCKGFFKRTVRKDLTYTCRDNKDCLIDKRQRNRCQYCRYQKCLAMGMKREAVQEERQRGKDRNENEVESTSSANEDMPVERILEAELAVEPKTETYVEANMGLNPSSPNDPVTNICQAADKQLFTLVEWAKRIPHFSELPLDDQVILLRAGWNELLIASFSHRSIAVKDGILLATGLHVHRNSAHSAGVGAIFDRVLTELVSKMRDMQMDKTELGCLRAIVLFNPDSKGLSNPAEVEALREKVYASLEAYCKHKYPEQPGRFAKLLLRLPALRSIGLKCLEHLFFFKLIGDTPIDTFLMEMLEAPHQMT

KKAy mice = assay: Gene expression by RT-PCR in tissues of treated KKAy mice; assay type: in vivo, mouse; details: 12 days oral
Experimental: as §1
Male db/db mice (BKS.Cg-m +/+ LEPR^db) in 6-7 weeks were purchased from The Jackson Laboratory (Bar Harbor, ME, USA). Male KKAy and C57BL/6J mice in 8–10 weeks were obtained from the Institute of Animal Science, Chinese Academy of Medical Sciences and Peking Union Medical College (Beijing, China). Animals were randomly sorted into different treatment groups (8–10 per group). […]. Plasma glucose levels were examined at various time points by Accu-Chek Advantage II Glucose Strips (Roche Diagnostics, Basel, Switzerland) and measured by Accu-Chek Advantage (Roche Diagnostics). Animals were sacrificed 24 h after the last dosing and abdominal fat pad, liver, and skeletal muscle from KKAy mice and abdominal fat pad from db/db mice were taken for gene expression analysis.
Figure 3 In vivo regulation of gene expression by chiglitazar. […]. Equal amount of total RNA from each mouse in the same group was mixed and subjected to RT-PCR analysis for the indicated genes. […]. Total RNA was isolated from individual animal tissues and subjected to the RT-PCR analysis independently for the indicated genes.

PPARα [2] = target: T1, PPARα; assay: PPARα transactivation reporter gene assay in SMMC-7721 cells; assay type: cell-based
[3] = 24 h treatment, luciferase reporter, hRXR cotransfected, ia: inactive at 10 μM
[4] = max response compared with WY at 50 μM
[5] = chiglitazar 20 mg kg^−1, rosiglitazone 5 mg kg^−1

## O=C(c1ccc(F)cc1)c1ccccc1NC(Cc1ccc(OCCn2c3ccccc3c3ccccc32)cc1)C(=O)O (stereo not shown) [Chi, 2-[(2-(4-fluorobenzoyl)phenyl)amino]-3-[4-(2-carbazolylethoxy)-phenyl]-propionic acid]
SMMC-7721 cells; vs vehicle
  Expression of PPARγ downstream genes AOX, LIPC and HSL: upregulated
SMMC-7721 cells; 50 μM WY14643, 5 μM 2-Bro
  Expression of LDL receptor (LDLR): kept no change
PPARα [1]; [3]
  EC50: 1200 ± 300 nM
PPARα [1]; [4]
  PPARα % Max: 147%
KKAy mice; [5]
  Expression of ACADL, HSL, GLUT4 and PPARγ in liver and skeletal muscle: not affected
  Expression of genes involved in PPARγ-mediated insulin sensitization in adipose tissue: almost identically up-regulated
KKAy mice; chiglitazar 20 mg kg^−1 compared with rosiglitazone 5 mg kg^−1
  Expression of PPARα and VLCS in adipose tissue: greater degree of upregulation
KKAy mice; chiglitazar 20 mg kg^−1 vs rosiglitazone 5 mg kg^−1
  Expression of leptin and SREBP1 in liver and skeletal muscle: more upregulated
PPARα [2]; [3]
  EC50: 1100 ± 300 nM
PPARα [2]; [4]
  PPARα % Max: 142%

Source: publication PMC3486420, “In Vitro and In Vivo Characterizations of Chiglitazar, a Newly Identified PPAR Pan-Agonist” (PPAR Research, 2012)
